Data published in PMC10607100, “Anticancer and Antiphytopathogenic Activity of Fluorinated Isatins and Their Water-Soluble Hydrazone Derivatives” (International Journal of Molecular Sciences, 2023).
Like-named read-outs stand apart in the source and are kept apart here.

Experiments:
Type in all cases: cell-based
Micrococcus luteus B-109 = experiment: Agar-well diffusion, bactericidal activity; details: Micrococcus luteus
Text: (§1) Plant pathogenic bacterial strains Micrococcus luteus B-109, Pectobacterium atrosepticum 1043, Pectobacterium carotovorum subsp. carotovorum MI, Pseudomonas fluorescens EL-2.1, and Xanthomonas campestris B-610 and the fungal strain Fusarium oxysporum IBPPM 543 were from the Collection of Rhizosphere Microorganisms, IBPPM RAS (WFCC no. 975, WDCM no. 1021) (CM IBPPM, http://collection.ibppm.ru). The pathogenic fungus Phytophthora cactorum VKM F-985, provided by the All-Russian Collection of Microorganisms (VKM) and deposited at the A.E. Favorsky Irkutsk Institute of Chemistry, SB RAS, was also used as a test organism. Bacteria M. luteus, P. carotovorum subsp. carotovorum, P. atrosepticum, and P. fluorescens were grown in a meat–peptone medium (BP), and X. campestris was grown in the medium with glucose, yeast extract, and calcium carbonate (GYCa). Solid media contained Bacto agar (18 g/L); pH was adjusted to 7.2–7.4. All bacterial cultures were grown at 28 °C. The mycelial cultures of F. oxysporum and P. cactorum were grown on a glucose–peptone–yeast (GPY) nutrient medium at 27 °C. For inoculum preparation, both fungal strains were initially grown on the agar GPY in Petri dishes and then transferred into the seed medium by punching out 5 mm of the agar plate culture with a self-designed cutter.
(§2) The antibacterial and antifungal activities of the compounds were explored using the agar-well diffusion method and the technique of mycelial radial growth inhibition. The method of diffusion in agar (measuring the diameter of growth inhibition zones) was used to determine the bactericidal activity. The 6-mm wells were made in agar medium (GYCa for Xanthomonas campestris or BP for other bacteria). Bacterial suspensions were distributed over the agar surface, and the tested compound’s solution (150 μL) was added to each well. The width of growth inhibition zones around the wells was determined after incubation for 36–40 h.

[1] = system: Pectobacterium atrosepticum 1043; experiment: Agar-well diffusion, bactericidal activity; details: Pectobacterium atrosepticum, 1043, 2 mM/L
Text: as §1, §2

[2] = system: Pseudomonas fluorescens EL-2.1; experiment: Agar-well diffusion, bactericidal activity; details: Pseudomonas fluorescens, EL2.1, 2 mM/L
Text: as §1, §2

[3] = system: Pectobacterium carotovorum subsp. carotovorum MI; experiment: Agar-well diffusion, bactericidal activity; details: Pectobacterium carotovorum, 2 mM/L
Text: as §1, §2

[4] = system: Xanthomonas campestris B-610; experiment: Agar-well diffusion, bactericidal activity; details: Xanthomonas campestris
Experimental: Bacteria M. luteus, P. carotovorum subsp. carotovorum, P. atrosepticum, and P. fluorescens were grown in a meat–peptone medium (BP), and X. campestris was grown in the medium with glucose, yeast extract, and calcium carbonate (GYCa). Solid media contained Bacto agar (18 g/L); pH was adjusted to 7.2–7.4. […] For inoculum preparation, both fungal strains were initially grown on the agar GPY in Petri dishes and then transferred into the seed medium by punching out 5 mm of the agar plate culture with a self-designed cutter.
as §2

[5] = system: Phytophthora cactorum VKM F-985; experiment: Mycelial radial growth inhibition; details: Phytophthora cactorum; for inhibition of growth at 1 µM: 1 nmol/mL; for inhibition of growth at 1 µM / inhibition of growth at 3 µM / inhibition of growth at 7 µM / inhibition of growth at 20 µM / inhibition of growth / inhibition of growth at 40 µM: read-out: Inhibition value, I (%); for inhibition of growth at 3 µM: 3 nmol/mL; for inhibition of growth at 7 µM: 7 nmol/mL; for inhibition of growth at 20 µM: 20 nmol/mL; for inhibition of growth: 27 nmol/mL; for inhibition of growth at 40 µM: 40 nmol/mL
Text: as §1
(§3) For the fungicidal activity analysis, radial growth (colony diameters) of the fungi on a solid medium in the absence and in the presence of the compounds 5a–e and 7a–c solutions at various concentrations were compared. The method consisted of the following: A sterile GPY agar medium (20.0 mL), which was melted and then allowed to cool to approximately 60 °C, was mixed with the precisely measured volumes of the solutions under question and poured into a sterile Petri dish (90 mm i.d.). After the solidification of GPY agar, the media were inoculated by the fungus using 10-day-old cultures of F. oxysporum or P. cactorum. The inoculation was conducted by transferring a 5-mm (i.d.) GPY-agar block covered with mycelium to the center of the Petri dish, followed by incubation in a thermostat at 27 °C. The fungicidal effect was scored by the size of the mycelium colony on a Petri dish compared to the control without fungicidal admixtures to GPY agar. Each treatment was performed in at least four replicates in two independent experiments. The observation period ended when the control Petri dish was filled with mycelium (usually after 12 days). […] The solutions of the compounds were prepared with a concentration of 2 mmol/L (stock solution). For comparison, test compounds were also commonly applied as disinfecting agents, and antibiotics were used as a positive control.

[6] = system: Fusarium oxysporum IBPPM 543; experiment: Mycelial radial growth inhibition; details: Fusarium oxysporum; for inhibition of growth at 1 µM: 1 nmol/mL; for inhibition of growth at 1 µM / inhibition of growth at 5 µM / inhibition of growth at 30 µM / inhibition of growth at 40 µM: read-out: Inhibition value, I (%); for inhibition of growth at 5 µM: 5 nmol/mL; for inhibition of growth at 30 µM: 30 nmol/mL; for inhibition of growth at 40 µM: 40 nmol/mL
Text: as §1, §3

[7] = system: five representative phytopathogens; experiment: Agar-well diffusion, bactericidal activity over the panel of phytopathogens; details: 36 h, 2 mM solutions; dependent on the test system used; read-out: inhibition zone width (mm), range over the test systems
Text: as §1, §2

[8] = Table S3, read-out: Inhibition zone width (mm), not less
[9] = 120 h, age of the fungus 5 days
[10] = 168 h, age of the fungus 7 days
[11] = 216 h, age of the fungus 9 days
[12] = IBPPM543, 72 h, age of the fungus 3 days
[13] = IBPPM543, 120 h, age of the fungus 5 days
[14] = IBPPM543, 168 h, age of the fungus 7 days
[15] = IBPPM543, 216 h, age of the fungus 9 days

EC50 ([5]; 120 h, day 5, read-out: EC50, µg/mL at Day 5, P. cactorum): 20 µg/mL
EC50 ([6]; IBPPM543, 120 h, day 5, read-out: EC50, µg/mL at Day 5, F. oxysporum): 13.9 µg/mL
Structure (SMILES): Cc1ccc[n+](CC(=O)N/N=C2\C(=O)N(Cc3cccc(C(F)(F)F)c3)c3ccccc32)c1C [Compound 7c]
zone of inhibition at 2000 µM (Micrococcus luteus B-109; B109, 2 mM/L, average of 3 experiments, read-out: width of the inhibition zone (mm), M. luteus): 7 mm
zone of inhibition at 2000 µM (Micrococcus luteus B-109; B109, Table S3, 2 mM/L, read-out: Inhibition zone width (mm), not less): ≥ 7 mm
zone of inhibition at 2000 µM ([1]; average of 3 experiments, read-out: width of the inhibition zone (mm), P. atrosepticum): 6 mm
zone of inhibition at 2000 µM [1, 8]: ≥ 6 mm
zone of inhibition at 2000 µM ([2]; average of 3 experiments, read-out: width of the inhibition zone (mm), Ps. fluorescens): 7 mm
zone of inhibition at 2000 µM [2, 8]: ≥ 7 mm
zone of inhibition at 2000 µM ([3]; average of 3 experiments, read-out: width of the inhibition zone (mm), P. carotovorum subsp. carotovorum): 7 mm
zone of inhibition at 2000 µM [3, 8]: ≥ 7 mm
zone of inhibition at 2000 µM ([4]; B610, 2 mM/L, average of 3 experiments, read-out: width of the inhibition zone (mm), X. campestris): 9 mm
zone of inhibition at 2000 µM ([4]; B610, Table S3, 2 mM/L, read-out: Inhibition zone width (mm), not less): ≥ 9 mm
inhibition of growth at 1 µM ([5]; 72 h, age of the fungus 3 days): 10%
inhibition of growth at 3 µM ([5]; 72 h, age of the fungus 3 days): 20%
inhibition of growth at 7 µM ([5]; 72 h, age of the fungus 3 days): 26%
inhibition of growth at 20 µM ([5]; 72 h, age of the fungus 3 days): 32%
inhibition of growth ([5]; 72 h, age of the fungus 3 days): 48%
inhibition of growth at 40 µM ([5]; 72 h, age of the fungus 3 days): 55%
inhibition of growth at 1 µM [5, 9]: 11%
inhibition of growth at 3 µM [5, 9]: 18%
inhibition of growth at 7 µM [5, 9]: 22%
inhibition of growth at 20 µM [5, 9]: 27%
inhibition of growth [5, 9]: 36%
inhibition of growth at 40 µM [5, 9]: 56%
inhibition of growth at 1 µM [5, 10]: 12%
inhibition of growth at 3 µM [5, 10]: 17%
inhibition of growth at 7 µM [5, 10]: 22%
inhibition of growth at 20 µM [5, 10]: 25%
inhibition of growth [5, 10]: 33%
inhibition of growth at 40 µM [5, 10]: 44%
inhibition of growth at 1 µM [5, 11]: 11%
inhibition of growth at 3 µM [5, 11]: 16%
inhibition of growth at 20 µM [5, 11]: 9%
inhibition of growth [5, 11]: 28%
inhibition of growth at 40 µM [5, 11]: 41%
inhibition of growth at 1 µM [6, 12]: 22%
inhibition of growth at 5 µM [6, 12]: 36%
inhibition of growth at 30 µM [6, 12]: 45%
inhibition of growth at 40 µM [6, 12]: 57%
inhibition of growth at 1 µM [6, 13]: 21%
inhibition of growth at 5 µM [6, 13]: 35%
inhibition of growth at 30 µM [6, 13]: 41%
inhibition of growth at 40 µM [6, 13]: 63%
inhibition of growth at 1 µM [6, 14]: 15%
inhibition of growth at 5 µM [6, 14]: 27%
inhibition of growth at 30 µM [6, 14]: 44%
inhibition of growth at 40 µM [6, 14]: 66%
inhibition of growth at 1 µM [6, 15]: 10%
inhibition of growth at 5 µM [6, 15]: 22%
inhibition of growth at 30 µM [6, 15]: 36%
inhibition of growth at 40 µM [6, 15]: 64%
zone of inhibition at 2000 µM [7]: 6 to 9 mm
